Format in all cases: physicochemical
Series [1] in a line: Loading of particles with triamcinolone hexacetonide (swelling in THF, slow addition of water). As to conditions: included surface-bound drug or free drug in solution. How it is done: In some embodiments, the loading procedure can affect the amount of drug that is absorbed into a particle of the present disclosure. For example, as set forth in Examples 7 and 8, 25 mg of 75:25 (mPEG-PVL-PAVL:PVL-PAVL) particles were swollen overnight with 2 mg/mL triamcinolone hexacetonide in THF. However, without wishing to be bound by theory, slow addition of greater volumes of water can facilitate greater uptake of triamcinolone hexacetonide by allowing the drug to preferentially partition into the particles. As set forth in Examples 7 and 8, slow addition of water enabled 67% loading efficiency. Additional parameters, in addition to the rate of water addition, that can affect the loading of a drug into a particle of the present disclosure are, for instance, the solvent in which the drug is dissolved, the time that the particles soak with the drug, and the volume of water used. Other parameters include the pH and the ionic strength of the solvent. For example, protic organic solvents such as methanol or ethanol can be used in place of water to facilitate loading of drug into a particle of the present disclosure.
Unless otherwise indicated, quantitation of drug products was carried out using HPLC methods. […]

Series [2] in a line: Drug loading of crosslinked PVL-co-PAVL macroparticles (cylinders). Here is the method:
(§1) Unless otherwise indicated, quantitation of drug products was carried out using HPLC methods. Calibration curves for drugs used herein (e.g., triamcinolone, triamcinolone hexacetonide, triamcinolone acetonide, paclitaxel, and curcumin) were prepared by injecting known concentrations of the drugs and measuring the area under the curve at each concentration. Analyses were carried out using an Agilent Zorbax Eclipse XDB-C18 column (150×4.6 mm i.d.) with a 12.5×4.6 mm guard column. The parameters for each drug are given below in Table 1
A crosslinked macroparticle weighing about 15 mg comprising PVL-co-PAVL (MW=14760 g/mol, 13% AVL, 87% VL) was loaded with 2.5 mg paclitaxel by overnight soaking in THF followed by the slow addition of 50 mL PBS containing 0.1% Tween.

A short description of series [3]: Release of triamcinolone hexacetonide from loaded particles in dissolution media. Here is the method: as §1
25 mg of 75:25 (mPEG-PVL-PAVL:PVL-PAVL) particles were swollen overnight with 2 mg/mL triamcinolone hexacetonide in THF. 10 mL water including 0.1% tween was then added dropwise. The resulting mixture was centrifuged, the supernatant was collected, and the addition of 10 mL water including 0.1% tween was added dropwise again (2×; 30 mL total).
Without wishing to be bound by theory, this may be due to the fact that the triamcinolone hexacetonide crystallized on the surface of the particles. Without wishing to be bound by theory, this may be due to the relatively fast addition of water and the limited solubility of triamcinolone hexacetonide, which caused it to crystallize.
The loading efficiency, which included surface-bound drug or free drug in solution, was 67%. Upon suspending the particles in dissolution media, 20% of the triamcinolone hexacetonide was released within an hour, and 30% was released within 2 hours.

The nature of series [4]: Preliminary drug release from crosslinked macroparticles. How it is done:
as §1
The macroparticles were suspended in PBS (0.1% Tween) and the release rate was observed. The macroparticles released 5% of the paclitaxel after 3 hours at room temperature and about 5% after 24 hours at room temperature.

Series [5] is described as follows: Curcumin loading, release and post-release extraction of microparticle flakes. How it is done:
as §1
Crosslinked microparticles (15 mg) were loaded with 2.5 mg curcumin by overnight soaking in THF followed by the slow addition of 50 mL PBS containing 0.1% Tween. The microparticles were rinsed with THF to remove free curcumin and dried overnight.
It was observed that microparticles thus produced formed “flakes” that could not be re-suspended in THF or PBS buffer solution upon drying. […] The flakes could not be re-suspended in PBS buffer.
The release profile of curcumin of microparticle flakes produced by the method described above. The release profile is further quantified in Table 6, below.

Where [6] appears, read: triamcinolone hexacetonide, first cylinder (labelled with a circle).
[7] abbreviates: particles of Example 8 suspended in dissolution media.
[8] abbreviates: about 15 mg PVL-co-PAVL macroparticle loaded with 2.5 mg paclitaxel.
Where [9] appears, read: about 15 mg PVL-co-PAVL macroparticle, PBS (0.1% Tween), room temperature.

SMILES strings stand for the structures.

On to `CC(C)(C)CC(=O)OCC(=O)[C@@]12OC(C)(C)O[C@@H]1C[C@H]1[C@@H]3CCC4=CC(=O)C=C[C@]4(C)[C@@]3(F)[C@@H](O)C[C@@]12C` [triamcinolone hexacetonide], for which, in series [1], the loading efficiency stood at 67%. Further, in series [2] (setting [6]), the “amount of drug in the first cylinder” value is listed as 1.118 mg and the “capacity of the first cylinder” value came out at 9.12%. Further, in series [2] (triamcinolone hexacetonide, second cylinder (labelled with an X)), the “capacity of the second cylinder” value was found to be 11.651%. In series [2] (triamcinolone hexacetonide, second cylinder (labelled with an X), in mg), the “amount of drug in the second cylinder” value turned out to be 0.901. In addition, the release profile result in series [3] (Example 7: 75:25 (mPEG-PVL-PAVL:PVL-PAVL) particles, relatively fast addition of water, surface-crystallized drug) is given as “relatively rapid release”. Besides, in series [3] (setting [7]), the “triamcinolone hexacetonide released within 2 hours” value is given as 30% and the “triamcinolone hexacetonide released within an hour” value amounted to 20%. Besides, the “total drug released after about 6 days” value in series [4] (both triamcinolone hexacetonide cylinders, FIG. 23) is recorded as “about 60%”.
For the compound `COc1cc(/C=C/C(=O)CC(=O)/C=C/c2ccc(O)c(OC)c2)ccc1O` [curcumin], the “curcumin recovered in post-release extraction of the flakes” value in series [5] (after 48 hours release) is listed as 57%. In series [5] (from microparticle flakes), the “curcumin released after 48 hours” value is recorded as 51%. In addition, the capacity in series [2] (curcumin-loaded cylinder) is reported as 9.64%. For the same compound, the “amount of drug in the cylinder” value in series [2] (curcumin-loaded cylinder dissolved in THF) worked out at 1.176 mg. The “curcumin released after about eight days” value in series [4] (curcumin-loaded cylinder, FIG. 21) is listed as “almost all”.
In series [2] (setting [8]), `CC(=O)O[C@H]1C(=O)[C@@]2(C)[C@H]([C@H](OC(=O)c3ccccc3)[C@]3(O)C[C@H](OC(=O)[C@H](O)[C@@H](NC(=O)c4ccccc4)c4ccccc4)C(C)=C1C3(C)C)[C@]1(OC(C)=O)CO[C@@H]1C[C@@H]2O` [paclitaxel] came in with a loading capacity of 1.7 % w/w and a loading efficiency of 30%. Besides, in series [4] (setting [9]), the “paclitaxel released after 3 hours” value is given as 5% and the “paclitaxel released after 24 hours” value is listed as “about 5%”.
